# Laboratory results reported in patent publication US8008258B2, “Cop 1 for treatment of inflammatory bowel diseases” (Yeda Research and Development Co. Ltd., priority 2003, dated 2011).
# Marks after values point to notes of the source that are not given here.
# How the values were obtained:
# TNBS-induced colitis = TNBS-induced colitis in SJL/J mice, various GA treatment modes; type: in vivo; design: key to Macroscopic scoring of colon damage: Ulceration (max 10): 0 = completely normal, 10 = most severe ulceration; key to Macroscopic scoring of colon damage: Adhesion (max 2): adhesion score, 0 to 2; key to Macroscopic scoring of colon damage: Diarrhea (max 1): diarrhea score, 0 to 1; key to Macroscopic scoring of colon damage: Thickness (max 1): thickness score, 0 to 1; conditions: for Decrease in the total histological score: statistically insignificant; for Macroscopic scoring of colon damage: Adhesion (max 2) / Macroscopic scoring of colon damage: Diarrhea (max 1) / Macroscopic scoring of colon damage: Thickness (max 1) / Macroscopic scoring of colon damage: Total Score (max 14) / Macroscopic scoring of colon damage: Ulceration (max 10): scoring 5 days after disease induction
# Experimental: Induction of cholitis in mice. TNBS-colitis was induced by rectal instillation of 2,4,6-trinitrobenzene sulfonic acid 5% (w/v), mixed with an equal volume of ethanol, into anesthetized mice (100 μl/mouse). Each treatment group included 6-12 mice. Mice that died before day 4 were considered as treatment casualties and were not taken into consideration.
# Assessment of colitis. Weight changes and survival were monitored daily. Five to eight days following TNBS instillation, mice were sacrificed and macroscopic as well as microscopic colonic damage was evaluated.
# Macroscopic colonic scoring. Gross colonic damage was graded according to Reuter et al. (1996), using the combined values of the four standard macroscopic parameters: degree of colonic ulcerations (scale from 0—completely normal, to 10—most severe); intestinal and peritoneal adhesions (0 to 2); diarrhea (0 to 1); and thickness (0 to 1). The total score is the arithmetic sum of the four scores. The evaluation was performed in a blind procedure.
# Microscopic scoring. Proximal, medial, and distal portions of colon were fixed in 10% phosphate-buffered formalin. Paraffin-embedded sections were stained with hematoxylin and eosin. The degree of histological damage and inflammation was graded according to Elson et al. (1996) using the combined values of the four microscopic parameters: extent (scale from 0—completely normal, to 2—involving more than one segment); inflammation (0—none to 3—severe); damage (0 to 3—severe transmural); and regeneration (0—complete re-eptihelization to 3—none). The total score is the arithmetic sum of the four scores. The evaluation was performed in a blind procedure.
# Oral treatment—250 μg/day in PBS, fed by gastric intubation with an 18-gauge stainless steel feeding needle. Unless otherwise stated, feedings were performed on days-7, -5, -3, -1, 0, 2, 4 and 6, relative to the day of TNBS instillation. […]
# To explore whether the beneficial effect of GA on TNBS-induced colitis is restricted to oral administration in the BALB/c strain or represents a more general effect, we studied the ability of GA administered by different routes and dosages to inhibit TNBS-induced colitis in two additional strains of mice.
# [1] = tested on: mesenteric lymph nodes (MLN) cells; assay: Lymphocyte proliferation (thymidine incorporation) in response to colonic extract, cells from colitis-induced mice; type: cell-based
# Experimental: FIGS. 4A-4F show the effect of GA on the lymphocyte proliferation in different mouse strains. The responses of normal mice, colitis-induced mice, and colitis-induced mice treated with GA orally or parenterally daily are compared in the BALB/c (FIGS. 4A, 4B), (SJL/JxBALB/c)F1 (FIGS. 4C, 4D), and SJL/J (FIGS. 4E, 4F) strains. Cells from spleens (FIGS. 4A, 4C, 4E) and mesenteric lymph nodes (MLN) (FIGS. 4B, 4D, 4F) were cultured, 7 days after disease induction, with no antigen, colonic extract (CE, 200 μg/ml), or GA (50 μg/ml). Results of thymidine incorporation are expressed as mean cpm±ISD of six culture wells and represent one of two similar experiments, using pooled cells from 3-5 mice in each group. # Indicates significant increase in the response to CE by colitic mice. * Indicates significant decrease in the response to CE induced by GA treatment.
# Colon extract. Colons of syngeneic normal mice were cut into small strips and homogenized. The homogenate was diluted in PBS and passed through glass wool. Protein quantity was measured by using a protein assay kit (Bio-Rad, Richmond, Calif.).
# (§1) Reactivity assays. Spleens and mesenteric lymph nodes (MLN) cells (0.5×10^6 cell/well) were cultured with either GA (50 μg/ml), colon extract (200 μg/ml), immobilized anti-CD3 (5 μg/ml), or PBS control, in a final volume of 250 μl/well (6 wells for each antigen). For proliferation assay, cells were cultured in RPMI 1640 with 10% FCS, pulsed with 1 μCi of [3H] thymidine after 48 h incubation, and harvested 12 h later. For cytokine (TNF-α and TGF-β) assay, cells were cultured in serum-free medium (DCCM-1), supernatants were collected after 72 h, and tested for the cytokines by ELISA using mAbs pairs (R&D Systems, Minneapollis, Minn.) according to the manufacturer's instruction.
# [2] = tested on: TNF-α secretion by spleen and MLN cells; assay: TNF-α secretion by spleen and MLN cells (ELISA); type: cell-based, mice
# Experimental: FIGS. 5A-5C show the effect of GA on TNF-α secretion in different mouse strains. The responses of normal mice, colitis-induced mice, and colitis-induced mice treated with GA orally or parenterally daily are compared in the BALB/c (FIG. 5A), (SJL/JxBALB/c)F1 (FIG. 5B), and SJL/J (FIG. 5C) strains. Cells from spleens and mesenteric lymph nodes (MLN) were cultured, 7 days after disease induction, with immobilized anti-CD3 (5 μg/ml). After 24 hours, supernatants from six culture wells were pooled and TNF-α was measured by ELISA in duplicates. Results are expressed as TNF-α concentration (pg/ml±SD) and represent one of two similar experiments, using pooled cells from 3-5 mice in each group. # Indicates significant increase in TNF-α in colitic mice in comparison to normal mice. * Indicates significant decrease in TNF-α induced by GA treatment in comparison to untreated colitis induced mice.
# as §1
# DSS-induced colitis = assay: Dextran sulfate sodium (DSS)-induced colitis in C57BL/6 mice; type: in vivo; conditions: GA 2.5 mg/day SC daily, by day 7 after DSS feeding, preliminary experiment
# Experimental: Feeding mice for several days with dextran sulfate sodium (DSS) polymers in the drinking water induces an acute colitis with bloody diarrhea, histological damage, and inflammation (Wirtz and Neurath, 2000).
# Female C57BL/6, 7 weeks old mice, were fed with 2.5% DSS solution in the drinking water for 7 days. GA was administered subcutaneously by daily injections—2.5 mg/day, in PBS, starting either 7 days before or in the same day of DSS feeding.
# [3] = GA injected daily (from day −7), 2.5 mg/mouse SC
# [4] = GA oral every other day (from day −7), 0.25 mg, 8 feedings
substance,measurement,setting,value
glatiramer acetate [GA],Reduction in macroscopic score versus untreated control,TNBS-induced colitis; GA daily injections from day −7,2.7 fold
same,Mortality (succumbed),TNBS-induced colitis; daily injection of GA,8%
same,Inhibition of weight loss caused by TNBS colitis,TNBS-induced colitis; daily-injected mice,major significant inhibition of weight loss
same,Decrease in the total histological score,TNBS-induced colitis; feeding,0.5 points
same,Decrease in the total histological score,TNBS-induced colitis; injection,1.8 points
same,Decrease in the total macroscopic score versus untreated mice,TNBS-induced colitis; oral treatment with GA,1.7 Points
same,Mortality rate,"TNBS-induced colitis; oral treatment with GA, by day 5",18%
same,Inhibition of weight loss caused by TNBS colitis,TNBS-induced colitis; orally-treated mice,"modest, statistically insignificant, inhibition of weight loss"
same,Macroscopic scoring of colon damage: Adhesion (max 2),TNBS-induced colitis; [3],1.2
same,Macroscopic scoring of colon damage: Diarrhea (max 1),TNBS-induced colitis; [3],0.5
same,Macroscopic scoring of colon damage: Thickness (max 1),TNBS-induced colitis; [3],0.5
same,Macroscopic scoring of colon damage: Total Score (max 14),TNBS-induced colitis; [3],5.7*
same,Macroscopic scoring of colon damage: Ulceration (max 10),TNBS-induced colitis; [3],3.5
same,Macroscopic scoring of colon damage: Adhesion (max 2),TNBS-induced colitis; [4],1.8
same,Macroscopic scoring of colon damage: Diarrhea (max 1),TNBS-induced colitis; [4],0.9
same,Macroscopic scoring of colon damage: Thickness (max 1),TNBS-induced colitis; [4],0.9
same,Macroscopic scoring of colon damage: Total Score (max 14),TNBS-induced colitis; [4],10.7
same,Macroscopic scoring of colon damage: Ulceration (max 10),TNBS-induced colitis; [4],7.1
same,Inhibition of the MLN proliferation response to colonic extract by GA treatment,[1]; MLN from (SJL/JxBALB/c)F1 mice treated either orally or parenterally with GA,complete inhibition
same,Inhibition of the local MLN proliferation response to colonic extract by GA treatment,"[1]; MLN from BALB/c, colonic extract 200 μg/ml, 7 days after disease induction",66%
same,Inhibition of the MLN proliferation response to colonic extract by GA treatment,[1]; MLN from SJL/J mice treated either orally or parenterally with GA,complete inhibition
same,Effect of GA treatment on TNF-α levels,[2]; SJL/J mice parenterally treated daily with GA,drastic decrease in TNF-α levels
same,Effect of GA treatment on TNF-α secretion in response to anti-CD3,"[2]; all strains, both spleens and MLN, all instances except MLN of SJL/J mice treated orally with GA",substantial reduction in TNF-α
same,TNF-α secretion on in vitro stimulation,[2]; in vitro stimulation of cells by GA (50 μg/ml),did not result in secretion of TNF-α
same,Maximum weight loss,DSS-induced colitis; injected from day 0,4%
same,Maximum weight loss,DSS-induced colitis; injected from day −7,7%
